Values joined by “and” are separate entries in the source; they are usually repeats but may differ in a detail not shown here. Equal entries are not always repeated. Structures can show the parent of a compound that is named as a salt.
System: A-253 human salivary gland cell line
Test: iROS assay (DCFH-DA), H2O2-induced oxidative stress in A-253 cells
Assay type: cell-based
Settings: for iROS assay - normalised data vs H2O2, Average / iROS assay - normalised data vs H2O2 (single values) / iROS assay - normalized data, Average / iROS assay - normalized data (single values): H2O2(1 mM), 24 hours; for iROS assay - normalised data vs H2O2, Average / iROS assay - normalised data vs H2O2 (single values): H2O2 alone = 1; for iROS assay - normalized data, Average / iROS assay - normalized data (single values): unstimulated cells = 1; for Effect on iROS induced by H2O2 (in words): A-253 cells, 3-1000 μM
Description: Objective: The objective of this study was to investigate the effect of the test compound (CLX 156), on H2O2-induced oxidative stress in human submaxillary gland (HSG) cell line; A-253 cell line, in comparison with pilocarpine hydrochloride. Method: A-253 human salivary gland cell line was cultured in McCoy's 5a Medium Modified (ATCC) with 10% HI-FBS according to manufacturer's guidelines at 37° C. in the presence of 5% CO 2 in a humified incubator. The cells were sub-cultured using Trypsin-EDTA and 10,000 cells seeded into each 48 well cell culture plates with a media volume of 500 μl. The cells were allowed to grow for 48 hours. After 48 hours of culture, the cells were pre-incubated for 1 hour with the positive, reference and test compounds at the desired concentrations (see table 1) followed by the addition of 1 mM H2O2 to the culture media (without the removal of test compounds) to induce oxidative stress. The incubation was continued for 24 hours. After 24 hours of treatment with H2O2, the cells were used to assess iROS as described below. This is a cell-based assay for measuring hydroxyl, peroxyl, or other reactive oxygen species activity within a cell. The assay employs the cell-permeable fluorogenic probe 2′, 7′-Dichlorodihydrofluorescin diacetate (DCFH-DA). In brief, DCFH-DA is diffused into cells and is deacetylated by cellular esterases to non-fluorescent 2′,7′-Dichlorodihydrofluorescin (DCFH), which is rapidly oxidized to highly fluorescent 2′,7′-Dichlorodihydrofluorescein (DCF) by ROS. The fluorescence intensity is proportional to the ROS levels within the cell cytosol. OxiSelect˜ Intracellular ROS Assay Kit was used according to the manufacturer's guidelines (Cell Biolabs). In short, at Day 3 the cells were washed several times with PBS and then treated with 1X DCFH-DA in media and incubated for 30-60 minutes. After DCFH-DA treatment, the oxidative stress was induced by adding 1 mM H2O2 and the fluorescence signals measured after 24 hours using a plate reader.

Compound	iROS assay - normalised data vs H2O2, Average (3 μM)	iROS assay - normalized data, Average (3 μM)	iROS assay - normalised data vs H2O2, Average (10 μM)	iROS assay - normalized data, Average (10 μM)	iROS assay - normalised data vs H2O2, Average (30 μM)	iROS assay - normalized data, Average (30 μM)	iROS assay - normalised data vs H2O2, Average (100 μM)	iROS assay - normalized data, Average (100 μM)	iROS assay - normalised data vs H2O2, Average (300 μM)	iROS assay - normalized data, Average (300 μM)	iROS assay - normalised data vs H2O2, Average (1000 μM)	iROS assay - normalized data, Average (1000 μM)	Effect on iROS induced by H2O2 (in words)	also measured
CC[C@@H]1C(=O)OC[C@@H]1Cc1cncn1C [Pilocarpine HCl, pilocarpine hydrochloride, reference compound]	1.0401	7.8631	0.9018	6.8174	0.8952	6.7676	0.9226	6.9751	0.9265	7.0041	0.9040	6.8340	comparatively less in magnitude and showed no clear dose response	iROS assay - normalised data vs H2O2 (single values) (3 μM, hydrochloride): 0.9995 and 1.0274 and 1.0933; iROS assay - normalized data (single values) (3 μM, hydrochloride): 7.5560 and 7.7676 and 8.2656; iROS assay - normalised data vs H2O2 (single values) (10 μM, hydrochloride): 0.8825 and 0.8760 and 0.9468; iROS assay - normalized data (single values) (10 μM, hydrochloride): 6.6722 and 6.6224 and 7.1577; iROS assay - normalised data vs H2O2 (single values) (30 μM, hydrochloride): 0.8941 and 0.8332 and 0.9583; iROS assay - normalized data (single values) (30 μM, hydrochloride): 6.7593 and 6.2988 and 7.2448; iROS assay - normalised data vs H2O2 (single values) (100 μM, hydrochloride): 0.9550 and 0.9336 and 0.8793; iROS assay - normalized data (single values) (100 μM, hydrochloride): 7.2199 and 7.0581 and 6.6473; iROS assay - normalised data vs H2O2 (single values) (300 μM, hydrochloride): 0.9040 and 0.8858 and 0.9896; iROS assay - normalized data (single values) (300 μM, hydrochloride): 6.8340 and 6.6971 and 7.4813; iROS assay - normalised data vs H2O2 (single values) (1000 μM, hydrochloride): 0.8924 and 0.8842 and 0.9352; iROS assay - normalized data (single values) (1000 μM, hydrochloride): 6.7469 and 6.6846 and 7.0705
CC[C@@H]1C(=O)OC[C@@H]1Cc1cncn1C.O=C(O)CCCC[C@@H]1CCSS1 [CLX 156, Pilocarpine-R-(+)-lipoate]	0.8035	6.0747	0.7206	5.4481	0.7536	5.6971	0.7541	5.7012	0.6581	4.9751	0.4638	3.5062	significantly inhibited the iROS induced by H2O2 in A-253 cells in a concentration dependent manner	iROS assay - normalised data vs H2O2 (single values) (3 μM): 0.8216 and 0.8019 and 0.7870; iROS assay - normalized data (single values) (3 μM): 6.2116 and 6.0622 and 5.9502; iROS assay - normalised data vs H2O2 (single values) (10 μM): 0.7047 and 0.6981 and 0.7591; iROS assay - normalized data (single values) (10 μM): 5.3278 and 5.2780 and 5.7386; iROS assay - normalised data vs H2O2 (single values) (30 μM): 0.7294 and 0.7558 and 0.7755; iROS assay - normalized data (single values) (30 μM): 5.5145 and 5.7137 and 5.8631; iROS assay - normalised data vs H2O2 (single values) (100 μM): 0.7887 and 0.7377 and 0.7360; iROS assay - normalized data (single values) (100 μM): 5.9627 and 5.5768 and 5.5643; iROS assay - normalised data vs H2O2 (single values) (300 μM): 0.6224 and 0.6965 and 0.6553; iROS assay - normalized data (single values) (300 μM): 4.7054 and 5.2656 and 4.9544; iROS assay - normalised data vs H2O2 (single values) (1000 μM): 0.4676 and 0.4396 and 0.4841; iROS assay - normalized data (single values) (1000 μM): 3.5353 and 3.3237 and 3.6598; Inhibition of iROS compared with Pilocarpine HCL (in words) (A-253 salivary gland cell culture model): superior to Pilocarpine HCL in inhibiting the iROS induced by H2O2; IC50 (H2O2-induced iROS in A-253 cells, read-out: IC50 for Intracellular ROS (iROS) inhibition): 552 µM
